According to article PMC9050923, “6,N^2-Diaryl-1,3,5-triazine-2,4-diamines: synthesis, antiproliferative activity and 3D-QSAR modeling” (RSC Advances, 2020):

How the values were obtained:
Type in all cases: cell-based
MCF-7 = test: MTT assay, MCF-7 breast cancer cells; details: Homo sapiens, MCF7, 10 μM, 72 h after the treatment, mean of three independent experiments, read-out: Percentage of cell viability MCF-7
Method: (§1) The prepared compounds 1–126 were tested on three breast cancer cell lines namely, MDA-MB231, SKBR-3 and MCF-7 using MTT assay. SKBR-3 and MCF-7 cell lines are estrogen and progesterone hormone positive cell lines often used as a model for the hormone therapy.[18] MDA-MB231 is triple negative breast cancer cell line, which is negative to estrogen and progesterone receptors and human epidermal growth factor receptor 2, a perfect model for chemotherapy.[18] Initially, all the prepared compounds 1–126 were tested on these three cancer cell lines at the screening concentration (10 μM) and percentage of cell viability was calculated 72 h after the treatment (Table 1).
(§2) The growth inhibitory effect of the compounds was determined on breast tumor cell line (MDA-MB231, SKBR-3 and MCF-7) at different concentrations with methotrexate and nilotinib as positive controls (Table 2).
(§3) The cytotoxic activity of 6,N^2-diaryl-1,3,5-triazine-2,4-diamines (1–126) was evaluated against three breast carcinoma cell lines (MDA-MB231, SKBR-3, and MCF-7) and normal breast cell line (MCF-10A) by MTT assay.[22] All cells were obtained from the American Type Culture Collection and were grown in 10% fetal bovine serum and 1% pen-strep antibiotic supplemented media (DMEM for MDA-MB231 and SKBR-3, RPMI for MCF-7, and MEGM for MCF-10A). For MTT assay, 20 000 to 75 000 cells per mL (based on the doubling time for each cell line) were seeded in 96 well plates and incubated for 24 h at 37 °C in 5% CO2 incubator. Then, compounds at different concentrations were added followed by the incubation at 37 °C for 72 h. After that, MTT solution (0.5 mg mL^−1) was added and the plates were incubated for another 4 h. The supernatant was then discarded and 100 μL of DMSO was added to each well. The plates were then read by Tecan NanoQuant (model: infinite m200 pro) plate reader and absorbance was measured at 570 nm. GI50 values were calculated using sigmoidal concentration–response curves (see ESI ^†) generated using the GraphPad Prism 7 program. Three independent experiments were carried out and the data were represented as mean of the three experiments.

MDA-MB231 = test: MTT assay, MDA-MB231 breast cancer cells; details: Homo sapiens, MDA-MB-231; 10 μM, 72 h after the treatment, MTT, mean of three independent experiments; read-out: Percentage of cell viability MDA-MB231
Method: as §1, §2, §3

SKBR-3 = test: MTT assay, SKBR-3 breast cancer cells; details: Homo sapiens, SK-BR-3; 10 μM, 72 h after the treatment, MTT, mean of three independent experiments; read-out: Percentage of cell viability SKBR-3
Method: as §1, §2, §3

Row | SMILES | viability at 10 µM (MCF-7) [%] | viability at 10 µM (MDA-MB231) [%] | viability at 10 µM (SKBR-3) [%]
1 | COc1ccc(Nc2nc(N)nc(-c3cccc(C)c3)n2)cc1 [Compound 57, N ^2-(4-Methoxyphenyl)-6-(3-methylphenyl)-1,3,5-triazine-2,4-diamine] | 75 | 91 | 90
2 | Cc1cccc(-c2nc(N)nc(Nc3ccc(C(C)C)cc3)n2)c1 [Compound 59, N ^2-(4-Isopropylphenyl)-6-(3-methylphenyl)-1,3,5-triazine-2,4-diamine] | 76 | 87 | 93
3 | Cc1ccc(-c2nc(N)nc(Nc3ccccc3)n2)cc1 [Compound 60] | 100 | 84 | 100
4 | Cc1ccc(-c2nc(N)nc(Nc3ccc(Br)cc3)n2)cc1 [Compound 63] | 93 | 87 | 100
5 | Cc1ccc(Nc2nc(N)nc(-c3ccc(C)cc3)n2)cc1 [Compound 64] | 86 | 59 | 92
6 | COc1ccc(Nc2nc(N)nc(-c3ccc(C)cc3)n2)cc1 [Compound 66] | 100 | 83 | 89
7 | Cc1ccc(-c2nc(N)nc(Nc3ccc(OC(F)(F)F)cc3)n2)cc1 [Compound 67] | 93 | 92 | 84
8 | Cc1ccc(-c2nc(N)nc(Nc3ccc(C(C)C)cc3)n2)cc1 [Compound 68] | 100 | 76 | 91
9 | Cc1ccc(-c2nc(N)nc(Nc3cccnc3)n2)cc1 [Compound 69] | 88 | 74 | 79
10 | COc1ccc(-c2nc(N)nc(Nc3ccc(F)cc3)n2)cc1 [Compound 72] | 100 | 68 | 100
11 | COc1ccc(-c2nc(N)nc(Nc3ccc(Cl)cc3)n2)cc1 [Compound 75] | 100 | 99 | 100
12 | COc1ccc(-c2nc(N)nc(Nc3ccc(Br)cc3)n2)cc1 [Compound 76] | 91 | 96 | 100
13 | COc1ccc(-c2nc(N)nc(Nc3ccc(OC(F)(F)F)cc3)n2)cc1 [Compound 79] | 95 | 74 | 84
14 | COc1ccc(-c2nc(N)nc(Nc3ccc(C(C)C)cc3)n2)cc1 [Compound 80] | 100 | 92 | 86
15 | Nc1nc(Nc2ccccc2)nc(-c2ccc(C(F)(F)F)cc2)n1 [Compound 82] | 96 | 55 | 97
16 | Nc1nc(Nc2ccccc2F)nc(-c2ccc(C(F)(F)F)cc2)n1 [Compound 83] | 93 | 55 | 71
17 | Nc1nc(Nc2ccc(Cl)cc2)nc(-c2ccc(C(F)(F)F)cc2)n1 [Compound 85] | 99 | 90 | 77
18 | Cc1ccc(Nc2nc(N)nc(-c3ccc(C(F)(F)F)cc3)n2)cc1 [Compound 86] | 83 | 54 | 95
19 | COc1ccccc1Nc1nc(N)nc(-c2ccc(C(F)(F)F)cc2)n1 [Compound 87] | 100 | 63 | 85
20 | COc1ccc(Nc2nc(N)nc(-c3ccc(C(F)(F)F)cc3)n2)cc1 [Compound 88] | 100 | 81 | 86
21 | Nc1nc(Nc2ccccc2)nc(-c2ccc(OC(F)(F)F)cc2)n1 [Compound 89] | 95 | 59 | 90
22 | Nc1nc(Nc2ccccc2F)nc(-c2ccc(OC(F)(F)F)cc2)n1 [Compound 90] | 90 | 60 | 80
23 | Nc1nc(Nc2ccccc2Cl)nc(-c2ccc(OC(F)(F)F)cc2)n1 [Compound 92] | 96 | 74 | 86

Row | SMILES | viability at 10 µM (MCF-7) [%] | viability at 10 µM (MDA-MB231) [%] | viability at 10 µM (SKBR-3) [%]
24 | Nc1nc(Nc2ccc(Br)cc2)nc(-c2ccc(OC(F)(F)F)cc2)n1 [Compound 93] | 90 | 83 | 96
25 | Cc1ccc(Nc2nc(N)nc(-c3ccc(OC(F)(F)F)cc3)n2)cc1 [Compound 94] | 97 | 79 | 87
26 | COc1ccc(Nc2nc(N)nc(-c3ccc(OC(F)(F)F)cc3)n2)cc1 [Compound 96] | 87 | 69 | 88
27 | Nc1nc(Nc2ccc(OC(F)(F)F)cc2)nc(-c2ccc(OC(F)(F)F)cc2)n1 [Compound 97] | 100 | 92 | 80
28 | CC(C)c1ccc(Nc2nc(N)nc(-c3ccc(OC(F)(F)F)cc3)n2)cc1 [Compound 98] | 95 | 100 | 90
29 | CC(C)c1ccc(Nc2nc(N)nc(-c3ccc(N(C)C)cc3)n2)cc1 [Compound 104] | 100 | 70 | 87
30 | CC(C)(C)c1ccc(-c2nc(N)nc(Nc3ccccc3)n2)cc1 [Compound 105] | 96 | 74 | 100
31 | CC(C)(C)c1ccc(-c2nc(N)nc(Nc3ccc(F)cc3)n2)cc1 [Compound 106] | 88 | 97 | 84
32 | CC(C)(C)c1ccc(-c2nc(N)nc(Nc3ccc(Cl)cc3)n2)cc1 [Compound 107] | 98 | 100 | 92
33 | CC(C)(C)c1ccc(-c2nc(N)nc(Nc3ccc(Br)cc3)n2)cc1 [Compound 108] | 99 | 59 | 98
34 | COc1ccc(Nc2nc(N)nc(-c3ccc(C(C)(C)C)cc3)n2)cc1 [Compound 109] | 93 | 91 | 85
35 | Nc1nc(Nc2ccc(Br)cc2)nc(-c2ccc(OCc3ccccc3)cc2)n1 [Compound 112] | 97 | 82 | 93
36 | Cc1ccc(Nc2nc(N)nc(-c3ccc(OCc4ccccc4)cc3)n2)cc1 [Compound 113] | 100 | 82 | 94
37 | Nc1nc(Nc2ccc(OC(F)(F)F)cc2)nc(-c2ccc(OCc3ccccc3)cc2)n1 [Compound 114] | 100 | 71 | 87
38 | Nc1nc(Nc2ccccc2)nc(-c2cccs2)n1 [Compound 115] | 91 | 100 | 87
39 | Nc1nc(Nc2ccccc2F)nc(-c2cccs2)n1 [Compound 116, N ^2-(2-Fluorophenyl)-6-(thiophen-2-yl)-1,3,5-triazine-2,4-diamine] | 90 | 98 | 78
40 | Nc1nc(Nc2ccc(F)cc2)nc(-c2cccs2)n1 [Compound 117] | 92 | 100 | 86
41 | Nc1nc(Nc2ccccc2Cl)nc(-c2cccs2)n1 [Compound 118] | 91 | 100 | 78
42 | Nc1nc(Nc2ccc(Cl)cc2)nc(-c2cccs2)n1 [Compound 119] | 98 | 100 | 89
43 | COc1ccc(Nc2nc(N)nc(-c3cccs3)n2)cc1 [Compound 123, N ^2-(4-Methoxyphenyl)-6-(thiophen-2-yl)-1,3,5-triazine-2,4-diamine] | 80 | 93 | 88
44 | Nc1nc(Nc2ccc(OC(F)(F)F)cc2)nc(-c2cccs2)n1 [Compound 124] | 85 | 100 | 86
45 | CC(C)c1ccc(Nc2nc(N)nc(-c3cccs3)n2)cc1 [Compound 125] | 89 | 100 | 86
46 | Nc1nc(Nc2cccnc2)nc(-c2cccs2)n1 [Compound 126] | 86 | 100 | 91
